Reference: PMC4894417, “Quantitative High-Throughput Profiling of Environmental Chemicals and Drugs that Modulate Farnesoid X Receptor” (Scientific Reports, 2014)
Like-named read-outs stand apart in the source and are kept apart here. Numbered stars: 1 amine (or outer) side, 2 acyl side, 3 side chain; on linkers, the order of the positions; unused ones are H or OH. Bridge positions count the residues as written; N and C are the ends. Square brackets hold non-standard residues; d marks the D form. Peptide text beside a SMILES is read from it. I, II: the chains in the order shown. Actinocin(9to1) = Cc1c2oc3c(C)ccc(C(=O)[*:1])c3nc-2c(C(=O)[*:2])c(N)c1=O; NMeV = CN[C@H](C(=O)O)C(C)C; Sar = CNCC(=O)O

How the values were obtained:
[1] = test system: FXR-UAS-bla HEK293T cells; assay: Cell viability assay (CellTiter Glo) in the same well as FXR-bla
human FXR [2] = target: T1, human FXR (Homo sapiens, UniProt Q96RI1); assay: FXR-bla reporter gene assay, agonist mode (qHTS); conditions: for FXR agonist EC50: Table S3, FXR-active drugs
human FXR [3] = target: T1, human FXR; assay: FXR-bla reporter gene assay, antagonist mode (CDCA-induced transactivation)
[4] = Table 1, mean ± SD of 3 experiments

T1 sequence (Q96RI1 with tags, fused parts or gaps limits assumed): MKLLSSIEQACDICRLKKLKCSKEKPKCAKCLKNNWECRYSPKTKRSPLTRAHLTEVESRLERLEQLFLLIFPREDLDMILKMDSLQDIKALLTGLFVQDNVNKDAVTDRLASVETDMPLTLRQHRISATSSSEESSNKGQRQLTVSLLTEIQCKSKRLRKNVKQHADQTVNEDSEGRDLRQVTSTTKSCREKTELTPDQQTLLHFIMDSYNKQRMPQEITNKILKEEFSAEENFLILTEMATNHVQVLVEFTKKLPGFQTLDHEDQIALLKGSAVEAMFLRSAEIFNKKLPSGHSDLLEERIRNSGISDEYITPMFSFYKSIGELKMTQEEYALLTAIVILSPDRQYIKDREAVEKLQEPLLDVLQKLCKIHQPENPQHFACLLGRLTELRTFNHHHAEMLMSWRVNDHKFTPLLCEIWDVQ

C[C@]12CC[C@@H]3c4ccc(O)cc4CC[C@H]3[C@@H]1CC[C@H]2O [17α-Estradiol]
Cytotoxicity IC50 ([1]; Table S1, primary screening): Inactive

C[C@]12CC[C@@H]3c4ccc(O)cc4CC[C@H]3[C@@H]1CC[C@@H]2O [17β-Estradiol]
Cytotoxicity IC50 ([1]; Table S1, primary screening): Inactive

Cc1c2oc3c(C)ccc(C(=O)N[C@@H]4C(=O)N[C@H](C(C)C)C(=O)N5CCC[C@H]5C(=O)N(C)CC(=O)N(C)[C@@H](C(C)C)C(=O)O[C@@H]4C)c3nc-2c(C(=O)N[C@@H]2C(=O)N[C@H](C(C)C)C(=O)N3CCC[C@H]3C(=O)N(C)CC(=O)N(C)[C@@H](C(C)C)C(=O)O[C@@H]2C)c(N)c1=O [Actinomycin D] (I: T[dV]P[Sar][NMeV] / II: T[dV]P[Sar][NMeV]; ester I:1-I:C, II:1-II:C; linker I:N-II:N via Actinocin(9to1))
Cell viability IC50 [1]: Inactive

O=c1cc(-c2ccc(O)cc2)oc2cc(O)cc(O)c12 [Apigenin]
Cytotoxicity IC50 ([1]; Table S1, primary screening): Inactive

CCOC(=O)[C@H](CCc1ccccc1)N[C@H]1CCc2ccccc2N(CC(=O)O)C1=O [Benazepril]
Cytotoxicity Efficacy ([1]; Table S3): 87 ± 27%

C[C@H](CCC(=O)O)[C@H]1CC[C@H]2[C@@H]3[C@H](O)C[C@@H]4C[C@H](O)CC[C@]4(C)[C@H]3CC[C@]12C [CDCA, Chenodeoxycholic acid]
Cytotoxicity Efficacy ([1]; Table S1, primary screening): 50 ± 1%

O=C(Nc1ccccc1)c1ccccc1SSc1ccccc1C(=O)Nc1ccccc1 [DTBBA, 2,2-Dithiobisbenzanilide]
FXR agonist mode Efficacy (human FXR [2]): 31 ± 13
EC50 (human FXR [2]; read-out: FXR agonist mode EC50, Table S1, primary screening): 24.6 ± 15.3 µM
FXR antagonist mode Efficacy (human FXR [3]): 51 ± 17
IC50 (human FXR [3]; read-out: FXR antagonist mode IC50): 18 ± 8.46 µM

COc1cccc2c1C(=O)c1c(O)c3c(c(O)c1C2=O)C[C@@](O)(C(=O)CO)C[C@@H]3O[C@H]1C[C@H](N)[C@@H](O)[C@H](C)O1 [Epirubicin]
Cell viability IC50 [1, 4]: Inactive

CCOc1ccc2nc3cc(N)ccc3c(N)c2c1 [Ethacridine]
EC50 (human FXR [2]): 21.4 ± 12 µM
FXR agonist Efficacy (human FXR [2]; Table S3): 31 ± 11%
FXR antagonist Efficacy (human FXR [3]; Table S3, 50 µM CDCA): 75 ± 17%

C#C[C@]1(O)CC[C@H]2[C@@H]3CCc4cc(O)ccc4[C@H]3CC[C@@]21C [Ethinylestradiol]
Cytotoxicity Efficacy ([1]; Table S1, primary screening): 36 ± 47%
Cytotoxicity Efficacy ([1]; Table S3): 36 ± 47%

CC[C@]1(O)CC[C@H]2[C@@H]3CCC4=CCCC[C@@H]4[C@H]3CC[C@@]21C [Ethylestrenol]
FXR agonist EC50 (human FXR [2]): Inactive
FXR antagonist Efficacy (human FXR [3]): 66 ± 11%

CN1CC[C@H](c2c(O)cc(O)c3c(=O)cc(-c4ccccc4Cl)oc23)[C@H](O)C1 [Flavopiridol]
Cell viability IC50 [1, 4]: Inactive

C[C@]12CC[C@@H]3c4ccc(O)cc4C[C@@H](CCCCCCCCC[S+]([O-])CCCC(F)(F)C(F)(F)F)[C@H]3[C@@H]1CC[C@@H]2O (stereo partly shown) [Fulvestrant]
Cytotoxicity IC50 ([1]; Table S1, primary screening): Inactive

CC(C)c1onc(-c2c(Cl)cccc2Cl)c1COc1ccc(/C=C/c2cccc(C(=O)O)c2)c(Cl)c1 [GW4064]
Cytotoxicity IC50 ([1]; Table S1, primary screening): Inactive

CC[C@H](C)[C@H]1O[C@]2(CC[C@@H]1C)C[C@@H]1C[C@@H](C/C=C(\C)[C@@H](O[C@H]3C[C@H](OC)[C@@H](O[C@H]4C[C@H](OC)[C@@H](O)[C@H](C)O4)[C@H](C)O3)[C@@H](C)/C=C/C=C3\CO[C@@H]4[C@H](O)C(C)=C[C@@H](C(=O)O1)[C@]34O)O2 [Ivermectin B1a]
Cytotoxicity Efficacy ([1]; Table S1, primary screening): 124 ± 6%
Cytotoxicity Efficacy ([1]; Table S3): 124 ± 6%
IC50 ([1]; read-out: Cytotoxicity IC50, Table S1, primary screening): 14.1 ± 2.63 µM

CO[C@@]12[C@H](COC(N)=O)C3=C(C(=O)C(C)=C(N)C3=O)N1C[C@@H]1N[C@@H]12 [Mitomycin C]
FXR agonist EC50 (human FXR [2]): Inactive
FXR antagonist Efficacy (human FXR [3]; Table S3, 50 µM CDCA): 62 ± 4%

CO/N=C1\C[C@]2(C[C@@H]3C[C@@H](C/C=C(\C)C[C@@H](C)/C=C/C=C4\CO[C@@H]5[C@H](O)C(C)=C[C@@H](C(=O)O3)[C@]45O)O2)O[C@H](/C(C)=C/C(C)C)[C@H]1C [Moxidectin, moxidectin]
FXR agonist activity (human FXR [2]; FXR-bla assay): did not show agonist activity

COC(=O)C1=C(C)NC(C)=C(C(=O)OC)C1c1ccccc1[N+](=O)[O-] [Nifedipine]
FXR agonist mode EC50 (human FXR [2]; Table S1, primary screening): Inactive
FXR antagonist activity (human FXR [3]; FXR-bla assay, CDCA-induced): antagonists
IC50 (human FXR [3]; IC50, FXR-bla antagonist mode, primary screening, CDCA-induced): 34 µM
FXR antagonist mode Efficacy (human FXR [3]; Table S1, primary screening, 50 µM CDCA): 66 ± 46%
